Assay results reported in article PMC10712105 (Journal of Translational Medicine, 2023).
Where “and” joins values, the source holds several entries; their conditions need not be identical. Equal values may be shown once. Where a name gives a salt, the structure may show the parent alone. Read-outs that look alike come from different tables or passages of the source.

Columns and labels:
[1] = Water solubility and solution stability; format: physicochemical
From the text: Following the formation of SPESN38 complexes, the solution was lyophilized to yield yellowish powder.

cancer cells = tested on: cancer cells; parameters: method as in PMID 11489791, PMID 1651156; conditions: cited from earlier work
[2] = Membrane dialysis SN38 release kinetics; format: physicochemical; conditions: in 7 h; 0.1 M NaHCO3 buffer, pH 8.6
[3] = tested on: HCT-116 CRC xenograft tumors; test: HCT-116 model efficacy study; conditions: for tumor growth inhibition (TGI) on Day 10: IV (irinotecan 50 mg/kg, SPESN38-5 55 mg/kg), vs control group, female SCID mice
Procedure: (§1) After growing in Eagle's Minimum Essential, HCT-116 cells were harvested by trypsinization and washed twice with PBS. HCT-116 cells (2 × 10^6 per injection) were suspended in 200 µL of a 1:1 solution of ice-cold PBS and Matrigel (Corning Incorporated, Corning, NY) solution. […] After the tumors grew to 800–1200 mm^3, they were isolated, and approximately 50 mg of non-necrotic tumor masses were subcutaneously implanted into the flank area of individual female SCID mice. […] Other doses at 75 and 50 mg/kg were tried on healthy CD-1 mice. […] Tumor volume (TV) and BW were measured three times per week or daily depending on the condition of the mouse. TV was calculated using the formula: v = 0.5 (L x W^2). Progression at the endpoint was a tumor size with diameter ≥ 20 mm or a moribund condition.

[4] = Irinotecan IV dose tolerability; format: in vivo, mouse; conditions: female, mouse, in vivo; SCID mice, via IV
Procedure: as §1

SCID mice and CD-1 mice = test: Irinotecan IV dose tolerability; format: in vivo, mouse
Procedure: as §1

[5] = parameters: method as in earlier work; conditions: irinotecan at 200 mg/kg, mice, cited from earlier work
[6] = cited from earlier work
[7] = tested on: SK-LMS-1 xenograft tumors; format: in vivo, SCID mice; parameters: Estimate of tumor volume difference vs SPESN38-8 / Estimate of tumor volume difference vs Vehicle: unit not given here; conditions: for Tumor volume, Mean / Tumor volume, Median: in mm³ (unit assumed); for Tumor volume change from Day 0, Mean / Tumor volume change from Day 0, Median: volume minus day 0 volume
From the text: SK-LMS-1 cell line (HTB-88) was purchased from ATCC. […] Equal number (12) of female and male mice were used in this experiment. […] The intended schedule for drug or vehicle treatment was weekly for 3 doses.
A mixed linear regression model was made with tumor volume as the outcome on day 2, 6, and 9. The model tested for group differences adjusted for time, day 0 volume, and sex. There was a within animal correlation modeled using a random intercept. […] The black color columns are within group at between days, the red columns are between group at each day.

SK-LMS-1 = SK-LMS-1 cell line; cited from earlier work
[8] = parameters: method as in PMID 8289200; conditions: in the presence of HSA; cited from earlier work
HSA = conditions: cited from earlier work
[9] = DOX 5 mg/kg qwk x 2, SPESN38-8 IV 33 mg/kg qwk x 3
[10] = Day 2, mixed linear regression model, Tukey-Kramer pairwise test
[11] = Day 6, mixed linear regression model, Tukey-Kramer pairwise test
[12] = IV, DOX 5 mg/kg, SPESN38-8 33 mg/kg, relative to control group
[13] = mixed linear regression model, Tukey-Kramer pairwise test

## CCc1c2c(nc3ccc(O)cc13)-c1cc3c(c(=O)n1C2)COC(=O)[C@]3(O)CC [SN38, 7-ethyl-10-hydroxy camptothecin]
[1]
  water solubility: very low solubility in water
Cancer cells
  times more cytotoxic than irinotecan: 100–1000 times

## CCc1c2c(nc3ccc(O)cc13)-c1cc3c(c(=O)n1C2)COC(=O)[C@]3(O)CC [SN38 salt]
[2]
  SN38 out of the membrane tubing: > 90%
[1]; under the same conditions as SPESN38 complexes
  solution stability: neither SN38 salt nor SN38 salt-HSA mixture is stable

## CCc1c2c(nc3ccc(OC(=O)N4CCC(N5CCCCC5)CC4)cc13)-c1cc3c(c(=O)n1C2)COC(=O)[C@]3(O)CC [irinotecan]
[3]
  tumor growth inhibition (TGI) on Day 10: 82%
[3]; listed as Irinotecan
  tumor growth inhibition (TGI) on Day 10: 82.3%
[3]; IV groups on Day 21
  Tumor weight Difference vs SPESN38-5 PO on Day 10: -0.6587
  Tumor weight Difference vs Vehicle on Day 10: -0.9605
[3]; normalized BW, ending Day 21, IV qwk x 3 (irinotecan 50 mg/kg, SPESN38-5 55 mg/kg)
  Mean % BW change at ending day: 90.5%
[4]
  MTD: 50 mg/kg
SCID mice and CD-1 mice; 50 mg/kg IV, 2 healthy CD-1 mice
  Tolerability: safe
SCID mice and CD-1 mice; 75 mg/kg IV, healthy CD-1 mice
  Mortality: died instantly
SCID mice and CD-1 mice; 100 mg/kg IV, 2 SCID mice bearing HCT-116
  Mortality: both died immediately
[5]; moiety Free SN38
  AUC0-∞: 9,940 ng x h/mL
  Cmax: 1,125 ng/mL
  Tmax: 31.8 min
[5]; moiety Irinotecan
  AUC0-∞: 16,348 ng x h/mL
  Cmax: 6,571 ng/mL
  Tmax: 17.4 min
[5]; moiety SN38-G
  AUC0-∞: 15,493 ng x h/mL
  Cmax: 2,620 ng/mL
  Tmax: 36 min
[6]; human setting
  fraction of irinotecan transformed in vivo into SN38: 2–8%
[6]; in humans
  drug excreted as intact irinotecan: 55%

## COc1cccc2c1C(=O)c1c(O)c3c(c(O)c1C2=O)C[C@@](O)(C(=O)CO)C[C@@H]3O[C@H]1C[C@H](N)[C@H](O)[C@H](C)O1 [DOX, doxorubicin]
[7]; [9]
  % Tumor volume change at Day 9: 142% and 142.4%
  Mean Tumor volume at Day 9: 843.5 mm^3
[7]; DOX Day 9, SPESN38-8 Day 21
  Tumor weight on ending day, Mean: 0.73 g
  Tumor weight on ending day, Median: 0.71 g
[7]; Day 0, DOX 5 mg/kg qwk x 2, SPESN38-8 IV 33 mg/kg qwk x 3
  Initial mean Tumor volume: 334.2 mm^3
[7]; Day 0
  Tumor volume, Mean: 334.20
  Tumor volume, Median: 343.40
[7]; Day 2
  Tumor volume, Mean: 347.68
  Tumor volume, Median: 355.78
  Tumor volume change from Day 0, Mean: 13.48
  Tumor volume change from Day 0, Median: 14.71
[7]; [10]
  Estimate of tumor volume difference vs SPESN38-8: 42.5383
  Estimate of tumor volume difference vs Vehicle: -178.73
[7]; Day 6
  Tumor volume, Mean: 495.42
  Tumor volume, Median: 464.84
  Tumor volume change from Day 0, Mean: 161.22
  Tumor volume change from Day 0, Median: 138.34
[7]; [11]
  Estimate of tumor volume difference vs SPESN38-8: 132.53
  Estimate of tumor volume difference vs Vehicle: -258.70
[7]; Day 9
  Tumor volume, Mean: 843.52
  Tumor volume, Median: 810.34
  Tumor volume change from Day 0, Mean: 509.32
  Tumor volume change from Day 0, Median: 472.65
[7]; Day 9, mixed linear regression model, Tukey-Kramer pairwise test
  Estimate of tumor volume difference vs SPESN38-8: 538.49
[7]; [12]
  TGI on Day 6: 27% and 26.9%
  TGI on Day 9: 25% and 25.3%
[7]; [13]
  Estimate of tumor volume difference within group, Day 2 vs Day 6: -147.74
  Estimate of tumor volume difference within group, Day 2 vs Day 9: -495.84
  Estimate of tumor volume difference within group, Day 6 vs Day 9: -348.11
[7]; mouse, in vivo
  BW loss after 2 doses: > 20%
SK-LMS-1
  IC50: 490 nM

## CC[C@@]1(O)C(=O)OCc2c1cc1n(c2=O)Cc2cc3ccccc3nc2-1 [CPT, Camptothecin]
[8]
  L form at the equilibrium: < 0.5%
HSA
  fold higher HSA affinity for the C form over the L form: 157 fold
